# Assay results taken from PubChem BioAssay AID328 (DTP/NCI, 2004).
# Where “and” joins values, the source holds several entries; their conditions need not be identical. Equal entries are not always repeated. Toxic doses and inconclusive results are not listed.
# Test system: BDF1 mice, P388 leukemia ip, median survival T/C
# Experiment: NCI In Vivo Anticancer Drug Screen. Data for tumor model P388 Leukemia (intraperitoneal) in B6D2F1 (BDF1) mice
# Details: endpoint: median survival time, higher = longer survival
# Summary of the method: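 Reported as T/C, where T is the survival measurement in dosed animals and C the same measurement in vehicle controls.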
# [1] = dose: 50.0 mg/kg/injection, schedule: Q04DX003 (ip), vehicle: saline with Tween-80
# [2] = dose: 100.0 mg/kg/injection, schedule: Q04DX003 (ip), vehicle: Klucel (hydroxypropylcellulose) (HPC)
# [3] = dose: 200.0 mg/kg/injection, schedule: Q04DX003 (ip), vehicle: Klucel (hydroxypropylcellulose) (HPC)
# [4] = dose: 25.0 mg/kg/injection, schedule: Q01DX009 (ip), vehicle: Klucel (hydroxypropylcellulose) (HPC)
# [5] = dose: 50.0 mg/kg/injection, schedule: Q01DX009 (ip), vehicle: saline with Tween-80
# [6] = dose: 100.0 mg/kg/injection, schedule: Q01DX009 (ip), vehicle: saline with Tween-80
# [7] = dose: 200.0 mg/kg/injection, schedule: Q01DX009 (ip), vehicle: saline with Tween-80
# [8] = dose: 100.0 mg/kg/injection, schedule: Q04DX003 (ip), vehicle: saline with Tween-80
# [9] = dose: 200.0 mg/kg/injection, schedule: Q04DX003 (ip), vehicle: saline with Tween-80
# [10] = dose: 400.0 mg/kg/injection, schedule: Q04DX003 (ip), vehicle: saline with Tween-80
# [11] = dose: 50.0 mg/kg/injection, schedule: Q01DX009 (ip), vehicle: saline
# [12] = dose: 50.0 mg/kg/injection, schedule: Q01DX009 (ip), vehicle: Klucel (hydroxypropylcellulose) (HPC)
# [13] = dose: 100.0 mg/kg/injection, schedule: Q01DX009 (ip), vehicle: Klucel (hydroxypropylcellulose) (HPC)
smiles,measurement,setting,value
O=C(OCC(OC(=O)c1ccccc1)C(OC(=O)c1ccccc1)C(OC(=O)c1ccccc1)C(COC(=O)c1ccccc1)OC(=O)c1ccccc1)c1ccccc1 (centres undefined),T/C,"dose: 6.25 mg/kg/injection, schedule: Q04DX003 (ip), vehicle: saline with Tween-80",97 % of control
same,T/C,"dose: 12.5 mg/kg/injection, schedule: Q04DX003 (ip), vehicle: saline with Tween-80",92 % of control
same,T/C,"dose: 25.0 mg/kg/injection, schedule: Q04DX003 (ip), vehicle: saline with Tween-80",97 % of control
same,T/C,[1],87 % of control
COc1ccc(OC)c([N+](=O)[O-])c1,T/C,[2],100 % of control
same,T/C,"dose: 200.0 mg/kg/injection, schedule: Q01DX009 (ip), vehicle: Klucel (hydroxypropylcellulose) (HPC)",95 % of control
same,T/C,[3],95 % of control
same,T/C,"dose: 400.0 mg/kg/injection, schedule: Q01DX009 (ip), vehicle: Klucel (hydroxypropylcellulose) (HPC)",90 % of control
same,T/C,"dose: 400.0 mg/kg/injection, schedule: Q04DX003 (ip), vehicle: Klucel (hydroxypropylcellulose) (HPC)",100 % of control
O=C1C(Cl)=C(Cl)C(=O)c2ccccc21,T/C,"dose: 6.25 mg/kg/injection, schedule: Q01DX009 (ip), vehicle: Klucel (hydroxypropylcellulose) (HPC)",115 % of control
same,T/C,"dose: 12.5 mg/kg/injection, schedule: Q01DX009 (ip), vehicle: Klucel (hydroxypropylcellulose) (HPC)",115 % of control
same,T/C,[4],112 % of control
CC1=C(/C=C/C(C)=C/C=C/C(C)=C/CO)C(C)(C)CCC1,T/C,[5],92 % of control
same,T/C,[6],96 % of control
same,T/C,[7],96 % of control
CC(=O)Oc1cc([N+](=O)[O-])ccc1C(=O)O,T/C,[8],104 % of control
same,T/C,[9],108 % of control
same,T/C,[10],100 % of control
O=[N+]([O-])c1ccc(Sc2ccc([N+](=O)[O-])cc2)cc1,T/C,[5],90 % of control
same,T/C,[1],100 % of control
same,T/C,[6],95 % of control
same,T/C,[7],90 % of control
same,T/C,[9],100 % of control
CC/C(=N/O)c1ccccc1,T/C,[8],90 % of control
same,T/C,[9],110 % of control
same,T/C,[10],105 % of control
C[C@@H]1CC[C@@]2(NC1)O[C@H]1C[C@H]3[C@@H]4CC=C5C[C@@H](O)CC[C@]5(C)[C@H]4CC[C@]3(C)[C@H]1[C@@H]2C,T/C,"dose: 50.0 mg/kg/injection, schedule: Q04DX003 (ip), vehicle: Klucel (hydroxypropylcellulose) (HPC)",100 % of control
same,T/C,"dose: 50.0 mg/kg/injection, schedule: Q04DX003 (ip), vehicle: saline sonified",110 % of control
same,T/C,"dose: 88.0 mg/kg/injection, schedule: Q01DX009 (ip), vehicle: saline with Tween-80",86 % of control
same,T/C,[2],109 % of control
same,T/C,"dose: 100.0 mg/kg/injection, schedule: Q04DX003 (ip), vehicle: saline sonified",100 % of control
same,T/C,"dose: 132.0 mg/kg/injection, schedule: Q01DX009 (ip), vehicle: saline with Tween-80",118 % of control
same,T/C,[3],104 % of control
same,T/C,"dose: 200.0 mg/kg/injection, schedule: Q04DX003 (ip), vehicle: saline sonified",105 % of control
same,T/C,"dose: 300.0 mg/kg/injection, schedule: Q01DX009 (ip), vehicle: saline with Tween-80",95 % of control
Cc1cc(C)n(-c2nn3nnnc3c3ccccc23)n1,T/C,[11],95 % of control
same,T/C,"dose: 100.0 mg/kg/injection, schedule: Q01DX009 (ip), vehicle: saline",95 % of control
same,T/C,"dose: 200.0 mg/kg/injection, schedule: Q01DX009 (ip), vehicle: saline",93 % of control
COc1ccc2c(C)[n+]3ccc4cc(OC)c(OC)cc4c3cc2c1 (tested in a mixture with another compound),T/C,"dose: 25.0 mg/kg/injection, schedule: Q04DX003 (ip), vehicle: saline",154 % of control
same,T/C,"dose: 33.0 mg/kg/injection, schedule: Q01DX009 (ip), vehicle: saline",186 % of control
same,T/C,[11],181 % of control
same,T/C,"dose: 50.0 mg/kg/injection, schedule: Q04DX003 (ip), vehicle: saline",154 % of control and 181 % of control
same,T/C,"dose: 75.0 mg/kg/injection, schedule: Q01DX009 (ip), vehicle: saline",118 % of control
same,T/C,"dose: 200.0 mg/kg/injection, schedule: Q04DX003 (ip), vehicle: saline",150 % of control
CC(=O)NN(c1ccc([N+](=O)[O-])cc1)c1ccc([N+](=O)[O-])cc1,T/C,[4],109 % of control
same,T/C,[12],109 % of control
same,T/C,[13],100 % of control
O=NN(CCCl)C(=O)Nc1cc(NC(=O)N(CCCl)N=O)cc(C(=O)O)c1,T/C,"dose: 0.03 mg/kg/injection, schedule: Q04DX003 (ip), vehicle: saline with Tween-80",116 % of control
same,T/C,"dose: 0.06 mg/kg/injection, schedule: Q04DX003 (ip), vehicle: saline with Tween-80",120 % of control and 122 % of control
same,T/C,"dose: 0.5 mg/kg/injection, schedule: Q04DX003 (ip), vehicle: saline with Tween-80",150 % of control
same,T/C,"dose: 0.6 mg/kg/injection, schedule: Q04DX003 (ip), vehicle: saline with Tween-80",163 % of control
same,T/C,"dose: 1.0 mg/kg/injection, schedule: Q04DX003 (ip), vehicle: saline with Tween-80",170 % of control
same,T/C,"dose: 1.8 mg/kg/injection, schedule: Q04DX003 (ip), vehicle: saline with Tween-80",195 % of control
same,T/C,"dose: 2.0 mg/kg/injection, schedule: Q04DX003 (ip), vehicle: saline with Tween-80",200 % of control
same,T/C,"dose: 2.3 mg/kg/injection, schedule: Q04DX003 (ip), vehicle: saline with Tween-80",215 % of control
same,T/C,"dose: 2.5 mg/kg/injection, schedule: Q04DX003 (ip), vehicle: saline with Tween-80",195 % of control
same,T/C,"dose: 3.5 mg/kg/injection, schedule: Q04DX003 (ip), vehicle: saline with Tween-80",265 % of control
same,T/C,"dose: 3.7 mg/kg/injection, schedule: Q04DX003 (ip), vehicle: saline with Tween-80",186 % of control
same,T/C,"dose: 5.5 mg/kg/injection, schedule: Q04DX003 (ip), vehicle: saline with Tween-80",235 % of control
same,T/C,"dose: 6.0 mg/kg/injection, schedule: Q04DX003 (ip), vehicle: saline with Tween-80",222 % of control
same,T/C,"dose: 8.5 mg/kg/injection, schedule: Q04DX003 (ip), vehicle: saline with Tween-80",275 % of control
same,T/C,"dose: 13.0 mg/kg/injection, schedule: Q04DX003 (ip), vehicle: saline with Tween-80",250 % of control and 300 % of control
same,T/C,"dose: 18.0 mg/kg/injection, schedule: Q04DX003 (ip), vehicle: saline with Tween-80",272 % of control
same,T/C,"dose: 20.0 mg/kg/injection, schedule: Q04DX003 (ip), vehicle: saline with Tween-80",272 % of control and 300 % of control and 218 % of control
same,T/C,"dose: 30.0 mg/kg/injection, schedule: Q04DX003 (ip), vehicle: saline with Tween-80",235 % of control and 272 % of control
same,T/C,"dose: 45.0 mg/kg/injection, schedule: Q04DX003 (ip), vehicle: saline with Tween-80",95 % of control
c1cc2n(n1)CCN2,T/C,"dose: 50.0 mg/kg/injection, schedule: Q01DX009 (ip), vehicle: water",105 % of control
same,T/C,"dose: 80.0 mg/kg/injection, schedule: Q01DX009 (ip), vehicle: saline",90 % of control
same,T/C,"dose: 100.0 mg/kg/injection, schedule: Q01DX009 (ip), vehicle: water",90 % of control
same,T/C,[8],120 % of control
same,T/C,"dose: 100.0 mg/kg/injection, schedule: Q04DX003 (ip), vehicle: water",103 % of control
same,T/C,"dose: 120.0 mg/kg/injection, schedule: Q01DX009 (ip), vehicle: saline",107 % of control
same,T/C,"dose: 180.0 mg/kg/injection, schedule: Q01DX009 (ip), vehicle: saline",112 % of control
same,T/C,"dose: 200.0 mg/kg/injection, schedule: Q01DX009 (ip), vehicle: water",90 % of control
same,T/C,"dose: 200.0 mg/kg/injection, schedule: Q04DX003 (ip), vehicle: water",96 % of control
same,T/C,"dose: 400.0 mg/kg/injection, schedule: Q04DX003 (ip), vehicle: water",121 % of control
O=S(=O)(O)N(O)c1ccccc1,T/C,"dose: 25.0 mg/kg/injection, schedule: Q01DX001 (ip), vehicle: saline with Tween-80",105 % of control
same,T/C,"dose: 50.0 mg/kg/injection, schedule: Q01DX001 (ip), vehicle: saline with Tween-80",102 % of control
same,T/C,"dose: 100.0 mg/kg/injection, schedule: Q01DX001 (ip), vehicle: saline with Tween-80",100 % of control
same,T/C,"dose: 200.0 mg/kg/injection, schedule: Q01DX001 (ip), vehicle: saline with Tween-80",99 % of control and 105 % of control
same,T/C,"dose: 400.0 mg/kg/injection, schedule: Q01DX001 (ip), vehicle: saline with Tween-80",101 % of control
CN(C)CCCNC(=O)c1ccc2c(c1O)C(=O)c1ccccc1C2=O,T/C,"dose: 50.0 mg/kg/injection, schedule: Q01DX005 (ip), vehicle: saline",118 % of control
C/C(=N\NC(N)=O)c1ccc(Cl)cc1,T/C,[12],94 % of control
same,T/C,[13],108 % of control
